Assays:
Conditions in all cases: exposure time: 72 h
E13 [1] = patient-derived glioblastoma stem cells of classical subtype; assay: surviving fraction (nuclei count normalised to DMSO); higher = more cells surviving (less toxic)
E21 [2] = patient-derived glioblastoma stem cells of mesenchymal subtype; assay: as above
E28 [3] = patient-derived glioblastoma stem cells of classical subtype; assay: as above
E31 [4] = patient-derived glioblastoma stem cells of proneural subtype; assay: as above
E34 [5] = patient-derived glioblastoma stem cells of proneural subtype; assay: as above
E57 [6] = patient-derived glioblastoma stem cells of mesenchymal subtype; assay: as above
FT3469 [7] = normal neural stem cell line; assay: as above
E13 [8] = assay: phenotypic distance (Euclidean, principal components) from DMSO controls (arbitrary units); higher = stronger morphological change
E21 [9] = assay: as above
E28 [10] = assay: as above
E31 [11] = assay: as above
E34 [12] = assay: as above
E57 [13] = assay: as above
FT3469 [14] = assay: as above
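For phenotypic distance (Euclidean, principal components) from DMSO controls in this document: cell Painting imaging in 384-well plates, CellProfiler features reduced to at least 20 principal components, Euclidean distance versus same-plate DMSO vehicle wells (0.1% v/v), median over six images per well.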
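For surviving fraction (nuclei count normalised to DMSO) in this document: nuclei counted by high-content imaging of Hoechst-stained cells in laminin-coated 384-well plates, relative to 0.1% DMSO vehicle wells, with staurosporine as cell-death control.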

Cc1cc(CN)cc(C)c1NC(=O)c1ccc(-c2cc(Cl)ccc2Cl)o1
surviving fraction (E13 [1]; 3000 nM): 0.865 | surviving fraction (E21 [2]; 3000 nM): 0.862 | surviving fraction (E28 [3]; 3000 nM): 0.919 | surviving fraction (E31 [4]; 3000 nM): 0.856 | surviving fraction (E34 [5]; 3000 nM): 0.829 | surviving fraction (E57 [6]; 3000 nM): 0.964 | surviving fraction (FT3469 [7]; 3000 nM): 0.883 | phenotypic distance (E13 [8]; 3000 nM): 1.34 | phenotypic distance (E21 [9]; 3000 nM): 0.968 | phenotypic distance (E28 [10]; 3000 nM): 0.815 | phenotypic distance (E31 [11]; 3000 nM): 1.86 | phenotypic distance (E34 [12]; 3000 nM): 0.825 | phenotypic distance (E57 [13]; 3000 nM): 1.29 | phenotypic distance (FT3469 [14]; 3000 nM): 0.784

Cc1ccc(S(=O)(=O)/C=C/C#N)cc1 [Bay 11-7082]
surviving fraction (E13 [1]; 4.1 nM): 0.964 | surviving fraction (E13 [1]; 12.3 nM): 1.06 | surviving fraction (E13 [1]; 37 nM): 1.03 | surviving fraction (E13 [1]; 111.1 nM): 0.988 | surviving fraction (E13 [1]; 333.3 nM): 0.976 | surviving fraction (E13 [1]; 1000 nM): 0.692 | surviving fraction (E13 [1]; 3000 nM): 0.0324 | surviving fraction (E21 [2]; 4.1 nM): 1.01 | surviving fraction (E21 [2]; 12.3 nM): 1.06 | surviving fraction (E21 [2]; 37 nM): 0.902 | surviving fraction (E21 [2]; 111.1 nM): 1 | surviving fraction (E21 [2]; 333.3 nM): 0.952 | surviving fraction (E21 [2]; 1000 nM): 0.67 | surviving fraction (E21 [2]; 3000 nM): 0.000991 | surviving fraction (E28 [3]; 4.1 nM): 1.16 | surviving fraction (E28 [3]; 12.3 nM): 1.07 | surviving fraction (E28 [3]; 37 nM): 1.02 | surviving fraction (E28 [3]; 111.1 nM): 0.918 | surviving fraction (E28 [3]; 333.3 nM): 0.805 | surviving fraction (E28 [3]; 1000 nM): 0.523 | surviving fraction (E28 [3]; 3000 nM): 0.00427 | surviving fraction (E31 [4]; 4.1 nM): 0.981 | surviving fraction (E31 [4]; 12.3 nM): 1.12 | surviving fraction (E31 [4]; 37 nM): 1.07 | surviving fraction (E31 [4]; 111.1 nM): 0.915 | surviving fraction (E31 [4]; 333.3 nM): 0.833 | surviving fraction (E31 [4]; 1000 nM): 0.574 | surviving fraction (E31 [4]; 3000 nM): 0.00325 | surviving fraction (E34 [5]; 4.1 nM): 1.17 | surviving fraction (E34 [5]; 12.3 nM): 0.972 | surviving fraction (E34 [5]; 37 nM): 1.03 | surviving fraction (E34 [5]; 111.1 nM): 0.881 | surviving fraction (E34 [5]; 333.3 nM): 1.04 | surviving fraction (E34 [5]; 1000 nM): 0.841 | surviving fraction (E34 [5]; 3000 nM): 0.208 | surviving fraction (E57 [6]; 4.1 nM): 0.965 | surviving fraction (E57 [6]; 12.3 nM): 0.935 | surviving fraction (E57 [6]; 37 nM): 0.978 | surviving fraction (E57 [6]; 111.1 nM): 0.894 | surviving fraction (E57 [6]; 333.3 nM): 0.905 | surviving fraction (E57 [6]; 1000 nM): 0.712 | surviving fraction (E57 [6]; 3000 nM): 0.107 | surviving fraction (FT3469 [7]; 4.1 nM): 0.987 | surviving fraction (FT3469 [7]; 12.3 nM): 0.984 | surviving fraction (FT3469 [7]; 37 nM): 0.932 | surviving fraction (FT3469 [7]; 111.1 nM): 0.814 | surviving fraction (FT3469 [7]; 333.3 nM): 0.809 | surviving fraction (FT3469 [7]; 1000 nM): 0.714 | surviving fraction (FT3469 [7]; 3000 nM): 0.0259 | phenotypic distance (E13 [8]; 4.1 nM): 0.928 | phenotypic distance (E13 [8]; 12.3 nM): 0.789 | phenotypic distance (E13 [8]; 37 nM): 0.388 | phenotypic distance (E13 [8]; 111.1 nM): 0.428 | phenotypic distance (E13 [8]; 333.3 nM): 0.7 | phenotypic distance (E13 [8]; 1000 nM): 2.5 | phenotypic distance (E13 [8]; 3000 nM): 13.2 | phenotypic distance (E21 [9]; 4.1 nM): 0.363 | phenotypic distance (E21 [9]; 12.3 nM): 0.689 | phenotypic distance (E21 [9]; 37 nM): 0.461 | phenotypic distance (E21 [9]; 111.1 nM): 0.482 | phenotypic distance (E21 [9]; 333.3 nM): 0.803 | phenotypic distance (E21 [9]; 1000 nM): 2.09 | phenotypic distance (E21 [9]; 3000 nM): 18.7 | phenotypic distance (E28 [10]; 4.1 nM): 0.601 | phenotypic distance (E28 [10]; 12.3 nM): 0.591 | phenotypic distance (E28 [10]; 37 nM): 0.652 | phenotypic distance (E28 [10]; 111.1 nM): 1.11 | phenotypic distance (E28 [10]; 333.3 nM): 1.33 | phenotypic distance (E28 [10]; 1000 nM): 1.83 | phenotypic distance (E28 [10]; 3000 nM): 16.4 | phenotypic distance (E31 [11]; 4.1 nM): 0.798 | phenotypic distance (E31 [11]; 12.3 nM): 0.511 | phenotypic distance (E31 [11]; 37 nM): 0.513 | phenotypic distance (E31 [11]; 111.1 nM): 0.736 | phenotypic distance (E31 [11]; 333.3 nM): 0.957 | phenotypic distance (E31 [11]; 1000 nM): 1.61 | phenotypic distance (E31 [11]; 3000 nM): 15.2 | phenotypic distance (E34 [12]; 4.1 nM): 1.17 | phenotypic distance (E34 [12]; 12.3 nM): 0.478 | phenotypic distance (E34 [12]; 37 nM): 0.466 | phenotypic distance (E34 [12]; 111.1 nM): 0.813 | phenotypic distance (E34 [12]; 333.3 nM): 0.985 | phenotypic distance (E34 [12]; 1000 nM): 0.91 | phenotypic distance (E34 [12]; 3000 nM): 9.42 | phenotypic distance (E57 [13]; 4.1 nM): 0.529 | phenotypic distance (E57 [13]; 12.3 nM): 0.37 | phenotypic distance (E57 [13]; 37 nM): 0.668 | phenotypic distance (E57 [13]; 111.1 nM): 0.846 | phenotypic distance (E57 [13]; 333.3 nM): 1.16 | phenotypic distance (E57 [13]; 1000 nM): 2.8 | phenotypic distance (E57 [13]; 3000 nM): 8.7 | phenotypic distance (FT3469 [14]; 4.1 nM): 0.889 | phenotypic distance (FT3469 [14]; 12.3 nM): 0.728 | phenotypic distance (FT3469 [14]; 37 nM): 0.551 | phenotypic distance (FT3469 [14]; 111.1 nM): 0.796 | phenotypic distance (FT3469 [14]; 333.3 nM): 1.04 | phenotypic distance (FT3469 [14]; 1000 nM): 2.13 | phenotypic distance (FT3469 [14]; 3000 nM): 17.6

Reference: the supplement of paper PMC13207355
